Reference: ChEMBL document CHEMBL3822436, “New polyhydroxylated flavon-3-ols and 3-hydroxy-2-styrylchromones: synthesis and ROS/RNS scavenging activities” (Eur J Med Chem, 2016)

How the values were obtained:
Format in all cases: physicochemical
[1] = Antioxidant activity assessed as inhibition of superoxide-induced NBT reduction measured during 2 mins by spectrophotometric analysis
[2] = Antioxidant activity assessed as inhibition of hydrogen peroxide-induced lucigenin oxidation at 1000 uM by chemiluminescence-based assay
[3] = Antioxidant activity assessed as inhibition of HOCl-induced oxidation of non-fluorescent DHR to fluorescent rhodamine-123 by fluorescence-based assay
[4] = Antioxidant activity assessed as inhibition of singlet oxygen-induced oxidation of DHR to fluorescent rhodamine-123 measured after 30 mins by fluorescence microplate screening assay; details: for inhibition (INH): 0.5 h
[5] = Antioxidant activity assessed as inhibition of nitric oxide-induced oxidation of DAF-2 to DAF-2T measured after 30 mins by fluorimetric analysis
[6] = Antioxidant activity assessed as inhibition of peroxynitrite-induced oxidation of DHR to rhodamine-123 measured after 2 mins by fluorimetric analysis
[7] = Antioxidant activity assessed as inhibition of peroxynitrite-induced oxidation of DHR to rhodamine-123 measured after 2 mins in presence of NaHCO3 by fluorimetric analysis
[8] = Antioxidant activity assessed as inhibition of superoxide-induced NBT reduction at 100 uM measured during 2 mins by spectrophotometric analysis
[9] = Antioxidant activity assessed as inhibition of peroxyl radical-induced oxidation of fluorescein measured as trolox equivalent by ORAC assay
[10] = Antioxidant activity assessed as inhibition of peroxynitrite-induced oxidation of DHR to rhodamine-123 at 5 uM measured after 2 mins in presence of NaHCO3 by fluorimetric analysis

SMILES | IC50 [1] [nM] | inhibition (INH) [2] | IC50 [3] [nM] | IC50 [4] [nM] | inhibition (INH) [4] | IC50 [5] [nM] | IC50 [6] [nM] | IC50 [7] [nM] | inhibition (INH) [8] [%] | inhibition (INH) [10] | Activity [9] [uMequiv/uM]
COc1ccc(-c2oc3c(O)c(O)ccc3c(=O)c2O)cc1OC | 21000 | Not Active | 6300 | 2400 | Dose-dependent effect | 55 | 710 | 2500 |  |  | 
COc1ccc2c(=O)c(O)c(-c3ccc(O)c(O)c3)oc2c1OC | 58000 | Not Active | 3300 | 1300 | Dose-dependent effect | 58 | 590 | 1030 |  |  | 
O=c1c(O)c(-c2ccc(O)c(O)c2)oc2cc(O)cc(O)c12 [QUERCETIN] | 67000 | Not Active | 800 |  |  |  | 760 | 1100 |  |  | 0.49

Continued, in another order:

IC50 [1] [nM] | inhibition (INH) [2] | IC50 [3] [nM] | IC50 [4] [nM] | inhibition (INH) [4] | IC50 [5] [nM] | IC50 [6] [nM] | IC50 [7] [nM] | inhibition (INH) [8] [%] | inhibition (INH) [10] | SMILES | Activity [9] [uMequiv/uM]
30000 | Not Active | 1420 | 1000 | Dose-dependent effect | 670 | 290 | 980 |  |  | O=c1c(O)c(/C=C/c2ccc(O)c(O)c2)oc2c(O)c(O)ccc12 | 
 | Not Active | 820 | 1200 | Dose-dependent effect | 830 | 570 | 1300 | 49 |  | COc1ccc2c(=O)c(O)c(/C=C/c3ccc(O)c(O)c3)oc2c1OC | 
19000 | Not Active | 2400 | 4200 | Dose-dependent effect | 120 | 910 | 930 |  |  | O=c1c(O)c(-c2ccc(O)c(O)c2)oc2c(O)c(O)ccc12 | 
35000 | Not Active | 910 | 1000 | Dose-dependent effect | 1000 | 570 |  |  | Not Active | COc1ccc(/C=C/c2oc3c(O)c(O)ccc3c(=O)c2O)cc1OC | 
